Experimental findings from patent US20070123718A1, “Novel 4-amino-2(5H)-furanones” (Aston University, priority 2003, published 2007) are described below.

In assay [1] the target is T1, CCKB receptor (guinea pig cerebral cortex) (Cavia porcellus, UniProt H0VZC5).
T1 construct: CCKB (nM); other: guinea pig cerebral cortex membranes, 125I-Bolton-Hunter CCK 25 pM; Activity CCK-B [μM]; guinea pig cerebral cortex membranes
T1 sequence (H0VZC5 1-426): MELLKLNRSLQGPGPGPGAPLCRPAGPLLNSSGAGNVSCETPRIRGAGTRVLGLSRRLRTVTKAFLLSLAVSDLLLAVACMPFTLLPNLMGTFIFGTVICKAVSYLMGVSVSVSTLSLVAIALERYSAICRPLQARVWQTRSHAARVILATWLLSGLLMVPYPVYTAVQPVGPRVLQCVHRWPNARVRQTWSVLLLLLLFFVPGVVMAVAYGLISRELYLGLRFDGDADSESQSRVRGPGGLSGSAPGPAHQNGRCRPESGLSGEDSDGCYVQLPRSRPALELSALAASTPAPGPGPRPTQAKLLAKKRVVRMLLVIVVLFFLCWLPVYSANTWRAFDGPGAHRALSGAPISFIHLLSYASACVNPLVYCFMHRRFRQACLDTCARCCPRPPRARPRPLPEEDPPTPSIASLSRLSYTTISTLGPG
The experiment in a line: 125I-CCK-8 receptor binding assay, CCKB. To be noted: guinea pig cerebral cortex membranes. Here is the method:
(§1) CCKA and CCKB receptor binding assays were performed, by using guinea pig cerebral cortex (CCKB) or rat pancreas (CCKA). Male guinea pig brain tissues were prepared according to the modified method described by Saita et al, [(1994), Characterization of YM022: its CCKB/gastrin receptor binding profile and antagonism to CCK-8-induced Ca2+mobilization., Eur. J. Pharmacol.,269, 249-254]. Pancreatic membranes were prepared in a similar way but by Charpentier et al, [(1988), Cyclic cholecystokinin analogues with high selectivity for central receptors., Proc Natl Acad Sci USA, 85, 1968-1972]. The […] CCK binding assay: Tissues were homogenized in ice cold sucrose (0.32 M, 25 ml) for 15 strokes at 500 rpm and centrifuged at 13000 rpm for 10 mins. The supernatant was re-centrifuged at 13000 rpm for 20 mins. The resulting pellet was re-dispersed to the required volume of buffer at 500 rpm and stored in aliquots at […].
(§2) Binding was achieved using a radioligand ^125I-Bolton-Hunter labeled CCK, NEN at 25 pM. The samples were incubated {with membranes (0.1 mg/ml) } in 20 mM Hepes, 1 mM EGTA, 5 mM MgCl2, 150 mm NaCl, 0.25 mg/ml bacitracin at pH 6.5 for 2 hrs at RT and then […] by centrifugation at 1100 rpm for 5 minutes. The membrane pellets were washed twice with water and the bound radioactivity was measured in a Packard Cobra Auto-gamma counter (B5005). All binding assays were carried out with L-363, 260 as an internal non-specific standard. Controls (no compound) were also added. All samples were made in duplicate and repeated twice. All compounds were initially screened for percentage inhibition at 20 μm. Samples showing an average inhibition of <35% were diluted to 2 μm and re-screened and if active diluted again.

The subject of assay [2] is CCKB receptor (guinea pig cerebral cortex). The experiment in a line: 125I-CCK-8 receptor binding assay, CCKB. As to conditions: ratio CCKB/CCKA. Here is the method: as §1, §2
Assay [3] has as its target T2, CCKA receptor (rat pancreas) (Rattus norvegicus, UniProt P30551).
T2 construct: Pancreatic membranes were prepared in a similar way but by Charpentier et al; from tissue; host or cells: rat pancreas membranes
T2 sequence (P30551 1-444): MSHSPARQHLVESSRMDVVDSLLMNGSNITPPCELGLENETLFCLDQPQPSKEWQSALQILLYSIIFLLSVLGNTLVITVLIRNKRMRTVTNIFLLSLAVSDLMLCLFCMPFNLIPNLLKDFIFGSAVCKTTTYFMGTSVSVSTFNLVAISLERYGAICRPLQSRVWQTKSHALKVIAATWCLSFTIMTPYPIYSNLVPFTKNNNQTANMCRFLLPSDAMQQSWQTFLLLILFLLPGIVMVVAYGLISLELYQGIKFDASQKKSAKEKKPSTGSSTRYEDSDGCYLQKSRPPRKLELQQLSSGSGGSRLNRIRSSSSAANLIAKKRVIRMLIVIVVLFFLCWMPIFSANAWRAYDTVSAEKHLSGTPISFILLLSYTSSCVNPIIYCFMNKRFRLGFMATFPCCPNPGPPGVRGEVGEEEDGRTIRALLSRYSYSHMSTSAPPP
As to the kind of experiment: 125I-CCK-8 receptor binding assay, CCKA. As to conditions: rat pancreas membranes, 125I-Bolton-Hunter CCK 25 pM. As to the method: as §1, §2

Where [4] appears, read: Table 2, read-out: Activity CCK-B [μM] (IC50).
Where [5] appears, read: 125I-Bolton-Hunter CCK 25 pM, read-out: CCKB.

Read-outs that look alike come from different tables or passages of the source.

With `CC(C)OC1OC(=O)C(Cl)=C1N1CCc2ccccc21` (stereo not drawn) [Example 9, 3-Chloro-4-(2,3-dihydro-1H-indol-1-yl)-5-isopropoxy-2(5H)-one], the IC50 in assay [1] (setting [4]) is 2.5 µM.

For `C#CCOC1OC(=O)C(Cl)=C1N1CCN(Cc2ccccc2)CC1` (stereo not drawn) [Example 5, 4-(4-Benzylpiperazin-1-yl) 3-chloro-5-(prop-2-ynyloxy)furan-2(5H)-one], the IC50 in assay [1] (setting [4]) was greater than 20 µM.

For `CCC(C)NC1=C(Cl)C(=O)OC1OC` (stereo not drawn) [Example A8B5], in assay [1] (setting [4]), the IC50 was determined as 1.2 µM.

Consider `CC(=O)OC1OC(=O)C(Cl)=C1N1CCc2ccccc21` (stereo not drawn) [Example 2, 4-ClIforo-3-(2,3-dihydro-1H-indol-1-yl)-5-oxo-2,5-dihydrofuran-2-yl acetate], for which, in assay [1] (setting [4]), the IC50 is greater than 20 µM.

For `CCCCCCCCCCCCNC1=C(Cl)C(=O)OC1OC` (stereo not drawn) [Example A8B10], the IC50 in assay [1] (setting [4]) is 2.5 µM.

On to `COC1OC(=O)C(Cl)=C1n1cnc2ccccc21` (stereo not drawn) [Example A8B3], for which the IC50 in assay [1] (setting [4]) is 2.3 µM.

In the case of `CC(C)CNC1=C(Cl)C(=O)OC1c1ccccc1` (stereo not drawn) [Example 17, 3-Chloro-4-(isobutylamino)-5-phenyl furan-2(5H)-one], the IC50 was 0.011 µM in assay [1] (setting [5]) and 0.007 µM in assay [3]. Besides, the Selectivity in assay [2] is 1.6.

As for `CC1CCC(C(C)C)C(OC2OC(=O)C(Cl)=C2N2CCCC2)C1` (stereo not drawn) [Example A1B9], the IC50 in assay [1] (setting [4]) worked out at 2.2 µM.

Take `CC(C)OC1OC(=O)C(Cl)=C1N(Cc1ccccc1)Cc1ccccc1` (stereo not drawn) [Example 12, 3-Chloro-4-(dibenzylamino)-5-isopropoxyfuran-2(5H)-one]: the IC50 in assay [1] (setting [4]) amounted to 17 µM.

Consider `CCCCCCNC1=C(Cl)C(=O)OC1OC` (stereo not drawn) [Example 15, 3-Chloro-4-(hexylamino)-5-methoxyfuran-2(5H)-one], for which the IC50 came to 0.012 µM in assay [1] (setting [5]) and 0.008 µM in assay [3]. Besides, the Selectivity in assay [2] was found to be 1.5.

On to `CC(C)OC1OC(=O)C(Cl)=C1NCc1ccccc1Cl` (stereo not drawn) [Example 11, 3-Chloro-4-[(2-chlorobenzyl)amino]-5-isopropoxy-4-2(SH)-oue], for which, in assay [1] (setting [4]), the IC50 came out at 0.95 µM.

On to `C#CCOC1OC(=O)C(Cl)=C1N(C(C)C)C1CCCCC1` (stereo not drawn) [Example 6, 3-Chloro-4-[cyclohexyl(isopropyl)amino]-5-(prop-2-ynyloxy)furan-2(5H)-one], for which the IC50 in assay [1] (setting [5]) stood at 0.008 µM; in assay [3], 0.006 µM. Further, in assay [2], the Selectivity amounted to 1.3.

With `CCN(C1=C(Cl)C(=O)OC1CC(=O)c1ccc(Cl)cc1)c1cccc(C)c1` (stereo not drawn) [Example 16, 3-Chloro-5-[2-(4-chlorophenyl)-2-oxoethyl]-4-(ethyl-3-methylanilino) furan-2(5H)-one], the IC50 in assay [1] (setting [5]) came to 0.019 µM; in assay [3], 0.008 µM. Also, in assay [2], the Selectivity is on record as 2.3.

With `O=C1OC(Cl)C(Nc2ccccc2)=C1Cl` (stereo not drawn) [Example 8, 4-Anilino-3,5-dichlorofuran-2(5H)-one], in assay [1] (setting [4]), the IC50 came out at 16 µM.

Regarding `COC1OC(=O)C(Cl)=C1N1CCN(c2ccccc2)CC1` (stereo not drawn) [Example A8B8], the IC50 in assay [1] (setting [4]) stood at 14 µM.

With `COC1OC(=O)C(Cl)=C1Nc1cccc(C)c1` (stereo not drawn) [Example A8B4], in assay [1] (setting [4]), the IC50 turned out to be 2.5 µM.

As for `CC(C)OC1OC(=O)C(Cl)=C1N(C)Cc1ccccc1` (stereo not drawn) [Example 10, 4-[Benzyl(methyl)amino]-3-chloro-5-isopropoxyfuran-2(5H)-one], in assay [1] (setting [4]), the IC50 was 12 µM.

Take `COC1OC(=O)C(Cl)=C1NC1CCC(CCCc2ccccc2)CC1` (stereo not drawn) [Example A8B25]: the IC50 in assay [1] (setting [4]) was 16 µM.

Consider `COC1OC(=O)C(Cl)=C1NCCCN1CCOCC1` (stereo not drawn) [Example A8B17], for which, in assay [1] (setting [4]), the IC50 was 15 µM.

For `C#CCOC1OC(=O)C(Cl)=C1N1C(C)CNCC1C` (stereo not drawn) [Example A3B20], the IC50 in assay [1] (setting [4]) turned out to be 11.2 µM.

As to `COC1OC(=O)C(Cl)=C1Nc1c(C)n(C)n(-c2ccccc2)c1=O` (stereo not drawn) [Example 14], in assay [1] (setting [4]), the IC50 was 18 µM.

`CC(C)OC1OC(=O)C(Cl)=C1NCCc1ccccc1` (stereo not drawn) [Example 13, 3-Chloro-5-isopropoxy-4-(phenethylamine)furan-2(5H)-one]: the IC50 in assay [1] (setting [4]) worked out at 1.1 µM.

Regarding `C#CCOC1OC(=O)C(Cl)=C1NCc1ccccc1` (stereo not drawn) [Example 4, 4-(Benzylamino)-3-chloro-5-(prop-2-ynyloxy)furan-2(5H)-one], the values for the IC50 in assay [1] (setting [5]) and in assay [3] were 0.014 µM and 0.009 µM, respectively. The Selectivity in assay [2] was 1.5.

For the compound `CC1CCC(C(C)C)C(OC2OC(=O)C(Cl)=C2N(C)Cc2ccccc2)C1` (stereo not drawn) [Example 1, 4-[Benzyl(metliyl)arino]-3-chloro-5-[(2-isopropyl-5-methlylcyclohexyl)oxo] furan-2(5H)-one], the IC50 in assay [1] (setting [4]) was found to be 0.31 µM.

For `C#CCOC1OC(=O)C(Cl)=C1N1CC(C)OC(C)C1` (stereo not drawn) [Example 3, 3-Chloro-4-(2,6-dimethylmorpholin-4-yl)-5-(prop-2-ynyloxy)furan-2(5H)-one], in assay [1] (setting [4]), the IC50 was determined as 12.6 µM.

Turning to `CCCCCCCCCCCCCCCCOC1OC(=O)C(Cl)=C1N1CCN(C(=O)OCC)CC1` (stereo not drawn) [Example A7B24], in assay [1] (setting [4]), the IC50 was 12.4 µM.

With `COC1OC(=O)C(Cl)=C1N1CCN(Cc2ccccc2)CC1` (stereo not drawn) [Example A8B16], the IC50 in assay [1] (setting [4]) came out at 16 µM.

For `COC1OC(=O)C(Cl)=C1N1CCc2ccccc21` (stereo not drawn) [Example A8B2], in assay [1] (setting [4]), the IC50 turned out to be 1.5 µM.

Take `CCCCCCCCCCCCCCCCOC1OC(=O)C(Cl)=C1n1cc(C)cc1C` (stereo not drawn) [Example A7B23]: the IC50 in assay [1] (setting [4]) amounted to 0.86 µM.

`COC1OC(=O)C(Cl)=C1N1CCC(c2ccccc2)CC1` (stereo not drawn) [Example A8B11]: the IC50 in assay [1] (setting [4]) was 3 µM.

For `C=COC1OC(=O)C(Cl)=C1Nc1c(C)n(C)n(-c2ccccc2)c1=O` (stereo not drawn) [Example 7, 3-Chloro-4-[(1,5-dimethyl-2-phenyl-1,3-dihydro-3H-pyrazol-3-one)amino]-5-(vinyloxy)furan-2(5H)-one], the IC50 in assay [1] (setting [4]) was 3.3 µM.

Turning to `COC1OC(=O)C(Cl)=C1n1ccc(C)n1` (stereo not drawn) [Example A8B26], the IC50 in assay [1] (setting [4]) was 11 µM.
